Test results from ChEMBL document CHEMBL1153891, “Bioactivity-guided isolation of cytotoxic constituents of Brucea javanica collected in Vietnam” (2009).

Legend:
LNCaP = assay: Cytotoxicity against hormone-dependent human LNCAP cells after 2 days by sulforhodamine B assay; assay type: functional; details: 48 h, read-out: ED50 (the source's name)
Lu1 = assay: Cytotoxicity against human Lu1 cells after 2 days by sulforhodamine B assay; assay type: functional; details: Lu1, 48 h, read-out: ED50 (the source's name)
MCF7 [1] = assay: Cytotoxicity against human MCF7 cells after 2 days by sulforhodamine B assay; assay type: functional; details: MCF7, 48 h, read-out: ED50 (the source's name)
MDR [2] = assay: Inhibition of MDR pump assessed as potentiation of bruceine A-induced cytotoxicity against human MCF7 cells at 20 ug/mL after 2 days by sulforhodamine B assay; assay type: cell-based
MDR [3] = assay: Inhibition of MDR pump assessed as potentiation of bruceantin-induced cytotoxicity against human MCF7 cells at 20 ug/mL after 2 days by sulforhodamine B assay; assay type: cell-based
MCF7 [4] = assay: Ratio ED50 for human MCF7 cells to ED50 for human MCF7 cells in presence of 43 uM (-)-hydnocarpin; assay type: functional
MCF7 [5] = assay: Cytotoxicity against human MCF7 cells after 2 days by sulforhodamine B assay in presence of 43 uM (-)-hydnocarpin; assay type: functional; details: MCF7, 48 h, read-out: ED50 (the source's name)

SMILES	EC50 (LNCaP) [µM]	EC50 (Lu1) [µM]	EC50 (MCF7 [1]) [µM]	ED50 (MDR [2]) [µM]	ED50 (MDR [3]) [µM]	Ratio ED50 (MCF7 [4])	EC50 (MCF7 [5]) [µM]
C/C=C(\C)C(=O)O[C@@H]1C[C@]2(C)C(=CC[C@H]2[C@@H]2C[C@@H]([C@@H]3OC3(C)C)O[C@@H]2OC(C)=O)[C@@]2(C)[C@H]1[C@@]1(C)C=CC(=O)C(C)(C)[C@@H]1C[C@H]2OC(C)=O [BRUCEAJAVANONE B]	> 10	> 10	> 10				
CC[C@@]1(O)C(=O)OCc2c1cc1n(c2=O)Cc2cc3ccccc3nc2-1 [CAMPTOTHECIN]	> 10	> 10	> 10				
C/C=C(\C)C(=O)O[C@@H]1C[C@]2(C)C(=CC[C@H]2[C@@H]2C[C@@H]([C@@H]3OC3(C)C)O[C@H]2OC)[C@]2(C)[C@H](OC(C)=O)C[C@H]3C(C)(C)C(=O)C[C@H](O)[C@]3(C)[C@@H]12 [BRUCEAJAVANONE C]	> 10	> 10	> 10				
CCCCCC(=O)O[C@@H]1C[C@]2(C)C(=CC[C@H]2[C@@H]2C[C@@H]([C@@H]3OC3(C)C)O[C@@H]2OC(C)=O)[C@]2(C)[C@H](O)C[C@H]3C(C)(C)C(=O)C=C[C@]3(C)[C@@H]12 [BRUCEAJAVANONE A]	> 10	> 10	> 10				
COc1cc([C@@H]2Oc3ccc(-c4cc(=O)c5c(O)cc(O)cc5o4)cc3O[C@H]2CO)ccc1O	> 10	> 10	> 10	> 10	> 10		
C/C=C(\C)C(=O)O[C@@H]1C[C@@]2(C)[C@H]([C@@H]3C[C@@H]([C@@H]4OC4(C)C)O[C@@H]3OC(C)=O)CC[C@]2(C)[C@@H]2CC=C3C(C)(C)C(=O)C[C@H](O)[C@]3(C)[C@H]21 [BRUCEAJAVANINONE A]	> 10	> 10	> 10				
CC(=O)O[C@H]1C(=O)[C@@]2(C)[C@H]([C@H](OC(=O)c3ccccc3)[C@]3(O)C[C@H](OC(=O)[C@H](O)[C@@H](NC(=O)c4ccccc4)c4ccccc4)C(C)=C1C3(C)C)[C@]1(OC(C)=O)CO[C@@H]1C[C@@H]2O [PACLITAXEL]	> 10	> 10	> 10				
CCCCCC(=O)O[C@@H]1C[C@]2(C)C(=CC[C@H]2[C@@H]2C[C@@H]([C@@H]3OC3(C)C)O[C@@H]2OC(C)=O)[C@@]2(C)[C@H]1[C@@]1(C)C=CC(=O)C(C)(C)[C@@H]1C[C@H]2OC(C)=O	> 10	> 10	> 10				
COC(=O)[C@@]12OC[C@]34[C@H]([C@@H](O)[C@@H]1O)[C@@]1(C)CC(=O)C(O)=C(C)[C@@H]1C[C@H]3OC(=O)[C@H](OC(=O)CC(C)C)[C@@H]24 [BRUCEINE A]	0.096	0.079	0.015			10	0.0015
COC(=O)[C@@]12OC[C@]34[C@H]([C@@H](O)[C@@H]1O)[C@@]1(C)CC(=O)C(O)=C(C)[C@@H]1C[C@H]3OC(=O)[C@H](OC(=O)/C=C(\C)C(C)C)[C@@H]24 [BRUCEANTIN]	0.011	0.012	0.002			7.4	0.00027
